Test results taken from the supplement of paper PMC8612539.

Columns and labels:
Mannheimia haemolytica = test: minimum inhibitory concentration (MIC)
Description: (§1)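 Broth microdilution MIC (Sensititre BOPO7F bovine plate, CLSI methods) of 19 antimicrobials against field isolates of P. multocida, M. haemolytica, H. somni (deep nasopharyngeal swabs) and E. coli, Enterococcus spp. (rectal swabs) from weaned dairy heifers. Incubation 16-24 h at 35 C. MIC is the lowest concentration preventing visible growth. Values with <= or > lie at the tested range limits. Trimethoprim-sulfamethoxazole is given as the trimethoprim component of a 1:19 mixture.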

Enterococcus spp. = test: minimum inhibitory concentration (MIC)
Description: as §1

[1] = isolate (source animal id): 122
[2] = isolate (source animal id): 123
[3] = isolate (source animal id): 133
[4] = isolate (source animal id): 171
[5] = isolate (source animal id): 183
[6] = isolate (source animal id): 187
[7] = isolate (source animal id): 190
[8] = isolate (source animal id): 211
[9] = isolate (source animal id): 223
[10] = isolate (source animal id): 241
[11] = isolate (source animal id): 252
[12] = isolate (source animal id): 282
[13] = isolate (source animal id): 298
[14] = isolate (source animal id): 320
[15] = isolate (source animal id): 333

Measured: minimum inhibitory concentration

NC[C@@H]1O[C@H](O[C@H]2[C@@H](O)[C@H](O[C@@H]3[C@@H](O)[C@H](N)C[C@H](N)[C@H]3O[C@H]3O[C@H](CN)[C@@H](O)[C@H](O)[C@H]3N)O[C@@H]2CO)[C@H](N)[C@@H](O)[C@@H]1O [Neomycin]
16 µg/mL: Mannheimia haemolytica; isolate (source animal id): 31 | Enterococcus spp.; isolate (source animal id): 92 | Enterococcus spp.; isolate (source animal id): 111 | Enterococcus spp.; [2] | Enterococcus spp.; isolate (source animal id): 169 | Enterococcus spp.; [6] | Enterococcus spp.; isolate (source animal id): 197 | Enterococcus spp.; [9] | Enterococcus spp.; isolate (source animal id): 246 | Enterococcus spp.; isolate (source animal id): 250 | Enterococcus spp.; [12] | Enterococcus spp.; isolate (source animal id): 289 | Enterococcus spp.; isolate (source animal id): 290 | Enterococcus spp.; [13] | Enterococcus spp.; isolate (source animal id): 301 | Enterococcus spp.; [14] | Enterococcus spp.; [15]
32 µg/mL: Mannheimia haemolytica; isolate (source animal id): 55 | Enterococcus spp.; [3] | Enterococcus spp.; isolate (source animal id): 168 | Enterococcus spp.; isolate (source animal id): 177 | Enterococcus spp.; isolate (source animal id): 181 | Enterococcus spp.; isolate (source animal id): 182 | Enterococcus spp.; [5] | Enterococcus spp.; [7] | Enterococcus spp.; isolate (source animal id): 195 | Enterococcus spp.; isolate (source animal id): 296
8 µg/mL: Mannheimia haemolytica; isolate (source animal id): 28 | Mannheimia haemolytica; isolate (source animal id): 152 | Mannheimia haemolytica; isolate (source animal id): 154 | Mannheimia haemolytica; [7] | Mannheimia haemolytica; [8] | Mannheimia haemolytica; isolate (source animal id): 237 | Mannheimia haemolytica; isolate (source animal id): 288 | Mannheimia haemolytica; isolate (source animal id): 291 | Mannheimia haemolytica; isolate (source animal id): 308 | Mannheimia haemolytica; isolate (source animal id): 309 | Enterococcus spp.; isolate (source animal id): 88 | Enterococcus spp.; isolate (source animal id): 91 | Enterococcus spp.; [4] | Enterococcus spp.; isolate (source animal id): 194 | Enterococcus spp.; isolate (source animal id): 236 | Enterococcus spp.; isolate (source animal id): 244 | Enterococcus spp.; isolate (source animal id): 268
≤ 4 µg/mL: Mannheimia haemolytica; isolate (source animal id): 149 | Mannheimia haemolytica; isolate (source animal id): 151 | Mannheimia haemolytica; [4] | Mannheimia haemolytica; isolate (source animal id): 192 | Mannheimia haemolytica; isolate (source animal id): 300 | Mannheimia haemolytica; isolate (source animal id): 306 | Mannheimia haemolytica; [14] | Enterococcus spp.; isolate (source animal id): 2 | Enterococcus spp.; isolate (source animal id): 239
> 32 µg/mL: Mannheimia haemolytica; isolate (source animal id): 8 | Mannheimia haemolytica; isolate (source animal id): 13 | Mannheimia haemolytica; isolate (source animal id): 18 | Mannheimia haemolytica; isolate (source animal id): 21 | Mannheimia haemolytica; isolate (source animal id): 25 | Mannheimia haemolytica; isolate (source animal id): 27 | Mannheimia haemolytica; isolate (source animal id): 30 | Mannheimia haemolytica; isolate (source animal id): 32 | Mannheimia haemolytica; isolate (source animal id): 34 | Mannheimia haemolytica; isolate (source animal id): 36 | Mannheimia haemolytica; isolate (source animal id): 37 | Mannheimia haemolytica; isolate (source animal id): 40 | Mannheimia haemolytica; isolate (source animal id): 41 | Mannheimia haemolytica; isolate (source animal id): 43 | Mannheimia haemolytica; isolate (source animal id): 46 | Mannheimia haemolytica; isolate (source animal id): 49 | Mannheimia haemolytica; isolate (source animal id): 50 | Mannheimia haemolytica; isolate (source animal id): 51 | Mannheimia haemolytica; isolate (source animal id): 52 | Mannheimia haemolytica; isolate (source animal id): 53 | Mannheimia haemolytica; isolate (source animal id): 56 | Mannheimia haemolytica; isolate (source animal id): 57 | Mannheimia haemolytica; isolate (source animal id): 100 | Mannheimia haemolytica; isolate (source animal id): 103 | Mannheimia haemolytica; isolate (source animal id): 107 | Mannheimia haemolytica; isolate (source animal id): 108 | Mannheimia haemolytica; isolate (source animal id): 112 | Mannheimia haemolytica; isolate (source animal id): 113 | Mannheimia haemolytica; isolate (source animal id): 121 | Mannheimia haemolytica; [1] | Mannheimia haemolytica; [2] | Mannheimia haemolytica; isolate (source animal id): 126 | Mannheimia haemolytica; [3] | Mannheimia haemolytica; isolate (source animal id): 135 | Mannheimia haemolytica; isolate (source animal id): 138 | Mannheimia haemolytica; isolate (source animal id): 141 | Mannheimia haemolytica; isolate (source animal id): 142 | Mannheimia haemolytica; isolate (source animal id): 145 | Mannheimia haemolytica; isolate (source animal id): 159 | Mannheimia haemolytica; isolate (source animal id): 162 | Mannheimia haemolytica; isolate (source animal id): 170 | Mannheimia haemolytica; isolate (source animal id): 172 | Mannheimia haemolytica; isolate (source animal id): 173 | Mannheimia haemolytica; isolate (source animal id): 179 | Mannheimia haemolytica; isolate (source animal id): 180 | Mannheimia haemolytica; [5] | Mannheimia haemolytica; isolate (source animal id): 186 | Mannheimia haemolytica; [6] | Mannheimia haemolytica; isolate (source animal id): 188 | Mannheimia haemolytica; isolate (source animal id): 191 | Mannheimia haemolytica; isolate (source animal id): 201 | Mannheimia haemolytica; isolate (source animal id): 202 | Mannheimia haemolytica; isolate (source animal id): 209 | Mannheimia haemolytica; isolate (source animal id): 220 | Mannheimia haemolytica; isolate (source animal id): 221 | Mannheimia haemolytica; [9] | Mannheimia haemolytica; isolate (source animal id): 233 | Mannheimia haemolytica; [10] | Mannheimia haemolytica; [11] | Mannheimia haemolytica; isolate (source animal id): 253 | Mannheimia haemolytica; isolate (source animal id): 259 | Mannheimia haemolytica; isolate (source animal id): 260 | Mannheimia haemolytica; isolate (source animal id): 262 | Mannheimia haemolytica; [12] | Mannheimia haemolytica; isolate (source animal id): 287 | Mannheimia haemolytica; isolate (source animal id): 293 | Mannheimia haemolytica; [13] | Mannheimia haemolytica; isolate (source animal id): 299 | Mannheimia haemolytica; isolate (source animal id): 302 | Mannheimia haemolytica; isolate (source animal id): 304 | Mannheimia haemolytica; isolate (source animal id): 313 | Mannheimia haemolytica; isolate (source animal id): 318 | Mannheimia haemolytica; isolate (source animal id): 321 | Mannheimia haemolytica; isolate (source animal id): 323 | Mannheimia haemolytica; isolate (source animal id): 324 | Mannheimia haemolytica; isolate (source animal id): 326 | Mannheimia haemolytica; isolate (source animal id): 328 | Mannheimia haemolytica; isolate (source animal id): 329 | Mannheimia haemolytica; [15] | Mannheimia haemolytica; isolate (source animal id): 335 | Mannheimia haemolytica; isolate (source animal id): 338 | Enterococcus spp.; isolate (source animal id): 35 | Enterococcus spp.; isolate (source animal id): 42 | Enterococcus spp.; isolate (source animal id): 44 | Enterococcus spp.; isolate (source animal id): 79 | Enterococcus spp.; [1] | Enterococcus spp.; isolate (source animal id): 158 | Enterococcus spp.; isolate (source animal id): 175 | Enterococcus spp.; [8] | Enterococcus spp.; isolate (source animal id): 214 | Enterococcus spp.; isolate (source animal id): 222 | Enterococcus spp.; isolate (source animal id): 228 | Enterococcus spp.; isolate (source animal id): 230 | Enterococcus spp.; isolate (source animal id): 235 | Enterococcus spp.; [10] | Enterococcus spp.; isolate (source animal id): 247 | Enterococcus spp.; [11] | Enterococcus spp.; isolate (source animal id): 285 | Enterococcus spp.; isolate (source animal id): 310 | Enterococcus spp.; isolate (source animal id): 331 | Enterococcus spp.; isolate (source animal id): 341
